This passage reports Kinact/Kl results from US20250230165A1, “HETEROCYCLIC COMPOUNDS FOR USE IN THE TREATMENT OF CANCER” (ARTIOS PHARMA LIMITED, priority 2021, published 2025).

The target of this assay is T1, Human Polθ polymerase domain (aa1820-2590) (Homo sapiens, UniProt O75417).
T1 construct: Human Polθ polymerase domain (aa1820-2590) was expressed in E. coli; made in house; host or cells: E. coli
T1 sequence (O75417 1820-2590): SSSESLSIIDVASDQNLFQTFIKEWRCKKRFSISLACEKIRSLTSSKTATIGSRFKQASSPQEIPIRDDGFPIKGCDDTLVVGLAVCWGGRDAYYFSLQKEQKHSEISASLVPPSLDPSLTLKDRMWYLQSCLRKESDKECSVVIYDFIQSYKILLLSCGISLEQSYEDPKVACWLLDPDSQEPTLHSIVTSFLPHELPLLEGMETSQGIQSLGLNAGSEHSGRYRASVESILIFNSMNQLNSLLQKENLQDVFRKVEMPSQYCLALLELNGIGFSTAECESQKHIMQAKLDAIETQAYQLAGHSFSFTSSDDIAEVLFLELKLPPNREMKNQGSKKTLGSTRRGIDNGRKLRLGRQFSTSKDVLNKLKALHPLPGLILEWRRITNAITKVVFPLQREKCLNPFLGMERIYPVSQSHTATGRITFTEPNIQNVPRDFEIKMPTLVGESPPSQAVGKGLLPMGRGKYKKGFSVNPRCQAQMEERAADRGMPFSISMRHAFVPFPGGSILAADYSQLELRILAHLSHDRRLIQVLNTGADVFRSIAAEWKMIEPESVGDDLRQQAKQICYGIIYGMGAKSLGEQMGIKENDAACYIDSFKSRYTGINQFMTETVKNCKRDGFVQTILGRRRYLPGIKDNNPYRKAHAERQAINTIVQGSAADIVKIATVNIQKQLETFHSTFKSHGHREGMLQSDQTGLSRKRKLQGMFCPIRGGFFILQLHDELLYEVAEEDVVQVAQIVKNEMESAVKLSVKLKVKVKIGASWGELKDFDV
The assay can be described thus: Polθ Polymerase Domain Kinact/KI Assay (PicoGreen). The following applies: 0.8 nM Polθ, 100 nM DNA substrate, kobs vs [I] fit for 2-step covalent inhibitor. Type of assay: biochemical. In outline:
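PicoGreen fluorescence read-out of primer extension; progress curves per inhibitor concentration fitted for kobs, then kobs vs [I] fitted to a two-step covalent model to give Kinact and KI. Conditions: 0.8 nM enzyme, 100 nM DNA substrate, […].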
With `C=CC(=O)N1CC(N2CC[C@H](CN3C[C@H]4CC(=O)N(c5cc(C(F)(F)F)cc(C)n5)[C@@H]4C(=O)N(C)c4cccc(Cl)c43)[C@H](C#N)C2)C1` (single isomer, unassigned) [Example 227a], the Kinact/Kl stood at 230000 M⁻¹ s⁻¹.
Next, `C=CC(=O)N1CC(N2CC[C@@H](CN3C[C@H]4CC(=O)N(c5cc(C(F)(F)F)cc(C)n5)[C@@H]4C(=O)N(C)c4cccc(Cl)c43)[C@@H](C#N)C2)C1` (single isomer, unassigned) [Example 227b]: 1.07e+06 M⁻¹ s⁻¹.
Turning to `C=CC(=O)N1Cc2cc(CN3C[C@H]4CC(=O)N(c5cc(C(F)(F)F)cc(C)n5)[C@@H]4C(=O)N(C)c4cccc(Cl)c43)cnc2C1CO` (single isomer, unassigned) [Example 230], the Kinact/Kl worked out at 1.01e+06 M⁻¹ s⁻¹.
In the case of `C=CC(=O)N1Cc2cc(CN3C[C@H]4CC(=O)N(c5cc(C(F)(F)F)cc(C)n5)[C@@H]4C(=O)N(C)c4cccc(C)c43)cnc2C1CO` (single isomer, unassigned) [Example 232], the Kinact/Kl was determined as 1.89e+06 M⁻¹ s⁻¹.
In turn, `C=CC(=O)N1Cc2cc(CN3C[C@H]4CC(=O)N(c5cc(C(F)(F)F)cc(C)n5)[C@@H]4C(=O)N(C)c4cccc(C)c43)cnc2C1COC` (single isomer, unassigned) [Example 235] displayed a Kinact/Kl of 270000 M⁻¹ s⁻¹.
In the case of `C=CC(=O)N1Cc2cc(CN3C[C@H]4CC(=O)N(c5cc(C(F)(F)F)cc(C)n5)[C@@H]4C(=O)N(C)c4cccc(Cl)c43)cnc2C1COC` (single isomer, unassigned) [Example 237], the Kinact/Kl was determined as 270000 M⁻¹ s⁻¹.
Turning to `C=CC(=O)N1Cc2cc(CN3C[C@H]4CC(=O)N(c5cc(C(F)(F)F)cc(C)n5)[C@@H]4C(=O)N(C)c4cccc(Cl)c43)ccc2C1CC#N` (single isomer, unassigned) [Example 287b], the Kinact/Kl worked out at 1.19e+06 M⁻¹ s⁻¹.
On to `C=CC(=O)N1Cc2ccc(CN3C[C@H]4CC(=O)N(c5cc(C(F)(F)F)cc(C)n5)[C@@H]4C(=O)N(C)c4cccc(Cl)c43)cc2C1CC#N` (single isomer, unassigned) [Example 288a], for which the Kinact/Kl was 630000 M⁻¹ s⁻¹.
`C=CC(=O)N1Cc2ccc(CN3C[C@H]4CC(=O)N(c5cc(C(F)(F)F)cc(C)n5)[C@@H]4C(=O)N(C)c4cccc(Cl)c43)nc2C1CC#N` (single isomer, unassigned) [Example 289a]: the Kinact/Kl turned out to be 1.26e+06 M⁻¹ s⁻¹.
Take `C=CC(=O)N1Cc2nc(CN3C[C@H]4CC(=O)N(c5cc(C(F)(F)F)cc(C)n5)[C@@H]4C(=O)N(C)c4cccc(Cl)c43)ccc2C1CC#N` (single isomer, unassigned) [Example 290b]: the Kinact/Kl amounted to 1.3e+06 M⁻¹ s⁻¹.
The molecule `C=CC(=O)N1Cc2ncc(CN3C[C@H]4CC(=O)N(c5cc(C(F)(F)F)cc(C)n5)[C@@H]4C(=O)N(C)c4cccc(Cl)c43)cc2C1CC#N` (single isomer, unassigned) [Example 291a] came in with a Kinact/Kl of 1.17e+06 M⁻¹ s⁻¹.
The molecule `C=CC(=O)N1Cc2cc(CN3C[C@H]4CC(=O)N(c5cc(C(F)(F)F)cc(C)n5)[C@@H]4C(=O)N(C)c4cccc(Cl)c43)cnc2C1CC#N` (single isomer, unassigned) [Example 292b] showed a Kinact/Kl of 2.52e+06 M⁻¹ s⁻¹.
Under `C=CC(=O)N1Cc2nc(CN3C[C@H]4CC(=O)N(c5cc(C(F)(F)F)cc(C)n5)[C@@H]4C(=O)N(C)c4cccc(Cl)c43)cn2CC1C(F)(F)F` (single isomer, unassigned) [Example 293b] stands 1.28e+06 M⁻¹ s⁻¹; under `C=CC(=O)N1Cc2cc(CN3C[C@H]4CC(=O)N(c5cc(C(F)(F)F)cc(C)n5)[C@@H]4C(=O)N(C)c4cccc(Cl)c43)nn2CC1C` (single isomer, unassigned) [Example 294a], 1.61e+06 M⁻¹ s⁻¹.
Take `Cc1cc(C(F)(F)F)cc(N2C(=O)C[C@@H]3CN(Cc4ccc5c(c4)CN(C(=O)/C=C/CN(C)C)C5CC#N)c4c(Cl)cccc4N(C)C(=O)[C@H]32)n1` (single isomer, unassigned) [Example 310b]: the Kinact/Kl was determined as 1.46e+06 M⁻¹ s⁻¹.
In turn, `Cc1cc(C(F)(F)F)cc(N2C(=O)C[C@@H]3CN(Cc4ccc5c(c4)C(CC#N)N(C(=O)/C=C/CN(C)C)C5)c4c(Cl)cccc4N(C)C(=O)[C@H]32)n1` (single isomer, unassigned) [Example 311a] returned a Kinact/Kl of 1.12e+06 M⁻¹ s⁻¹.
The molecule `C=CC(=O)N1C[C@H](F)[C@@H](n2cc(CN3C[C@H]4CC(=O)N(c5cc(C(F)(F)F)cc(C)n5)[C@@H]4C(=O)N(C)c4cccc(C)c43)cn2)C1` (single isomer, unassigned) [Example 325a] gave a Kinact/Kl of 1.25e+06 M⁻¹ s⁻¹.
The molecule `C=CC(=O)N1C[C@@H](F)[C@H](n2cc(CN3C[C@H]4CC(=O)N(c5cc(C(F)(F)F)cc(C)n5)[C@@H]4C(=O)N(C)c4cccc(C)c43)cn2)C1` (single isomer, unassigned) [Example 325b] showed a Kinact/Kl of 870000 M⁻¹ s⁻¹.
`C=CC(=O)N1C[C@@H](n2cc(CN3C[C@H]4CC(=O)N(c5cc(C(F)(F)F)cc(C)n5)[C@@H]4C(=O)N(C)c4cccc(C)c43)cn2)[C@@H](F)C1` (single isomer, unassigned) [Example 325c] had a Kinact/Kl of 980000 M⁻¹ s⁻¹.
Under `C=CC(=O)N1C[C@@H](F)[C@@H](n2cc(CN3C[C@H]4CC(=O)N(c5cc(C(F)(F)F)cc(C)n5)[C@@H]4C(=O)N(C)c4cccc(C)c43)cn2)C1` (single isomer, unassigned) [Example 325d] stands 1.77e+06 M⁻¹ s⁻¹; under `C=CC(=O)N1C[C@@H](F)[C@@H](n2cnc(CN3C[C@H]4CC(=O)N(c5cc(C(F)(F)F)cc(C)n5)[C@@H]4C(=O)N(C)c4cccc(C)c43)c2)C1` (single isomer, unassigned) [Example 326a], 450000 M⁻¹ s⁻¹.
For `C=CC(=O)N1C[C@@H](n2cnc(CN3C[C@H]4CC(=O)N(c5cc(C(F)(F)F)cc(C)n5)[C@@H]4C(=O)N(C)c4cccc(C)c43)c2)[C@@H](F)C1` (single isomer, unassigned) [Example 326b], the Kinact/Kl came to 1.52e+06 M⁻¹ s⁻¹.
`C=CC(=O)N1CC(N2CCN(CCN3C[C@H]4CC(=O)N(c5cc(C(F)(F)F)cc(C)n5)[C@@H]4C(=O)N(C)c4cccc(F)c43)CC2)C1` [Example 1, (3aR,11aS)-5-(2-(4-(1-Acryloylazetidin-3-yl)piperazin-1-yl)ethyl)-6-fluoro-10-methyl-1-(6-methyl-4-(trifluoromethyl)pyridin-2-yl)-1,3a,4,5,10,11a-hexahydro-2H-benzo[b]pyrrolo[2,3-f][1,4]diazocine-2,11(3H)-dione] had a Kinact/Kl of 410000 M⁻¹ s⁻¹.
Take `C=CC(=O)N1CC2(CN(CCN3C[C@H]4CC(=O)N(c5cc(C(F)(F)F)cc(C)n5)[C@@H]4C(=O)N(C)c4cccc(F)c43)C[C@H]3CCCN32)C1` [Example 2, (3aR,11aS)-5-(2-((R)-1-Acryloyltetrahydro-1′H-spiro[azetidine-3,4′-pyrrolo[1,2-a]pyrazin]-2′(3′H)-yl)ethyl)-6-fluoro-10-methyl-1-(6-methyl-4-(trifluoromethyl)pyridin-2-yl)-1,3a,4,5,10,11a-hexahydro-2H-benzo[b]pyrrolo[2,3-f][1,4]diazocine-2,11(3H)-dione]: the Kinact/Kl is 670000 M⁻¹ s⁻¹.
For the molecule `C=CC(=O)N1CC(N2CCCN(CCN3C[C@H]4CC(=O)N(c5cc(C(F)(F)F)cc(C)n5)[C@@H]4C(=O)N(C)c4cccc(F)c43)CC2)C1` [Example 3, (3aR,11aS)-5-(2-(4-(1-Acryloylazetidin-3-yl)-1,4-diazepan-1-yl)ethyl)-6-fluoro-10-methyl-1-(6-methyl-4-(trifluoromethyl)pyridin-2-yl)-1,3a,4,5,10,11a-hexahydro-2H-benzo[b]pyrrolo[2,3-f][1,4]diazocine-2,11(3H)-dione], the Kinact/Kl was 540000 M⁻¹ s⁻¹.
Consider `C=CC(=O)N1CC2(CN(CCN3C[C@H]4CC(=O)N(c5cc(C(F)(F)F)cc(C)n5)[C@@H]4C(=O)N(C)c4cccc(F)c43)CCO2)C1` [Example 4, (3aR,11aS)-5-(2-(2-acryloyl-5-oxa-2,8-diazaspiro[3.5]nonan-8-yl)ethyl)-6-fluoro-10-methyl-1-(6-methyl-4-(trifluoromethyl)pyridin-2-yl)-1,3a,4,5,10,11a-hexahydro-2H-benzo[b]pyrrolo[2,3-f][1,4]diazocine-2,11(3H)-dione], for which the Kinact/Kl was determined as 750000 M⁻¹ s⁻¹.
`C=CC(=O)N1CC2CN(CCN3C[C@H]4CC(=O)N(c5cc(C(F)(F)F)cc(C)n5)[C@@H]4C(=O)N(C)c4cccc(F)c43)CC(C1)O2` [Example 5, (3aR,11aS)-5-(2-(7-acryloyl-9-oxa-3,7-diazabicyclo[3.3.1]nonan-3-yl)ethyl)-6-fluoro-10-methyl-1-(6-methyl-4-(trifluoromethyl)pyridin-2-yl)-1,3a,4,5,10,11a-hexahydro-2H-benzo[b]pyrrolo[2,3-f][1,4]diazocine-2,11(3H)-dione] showed a Kinact/Kl of 140000 M⁻¹ s⁻¹.
